System: c-Myc
Assay: c-Myc immunofluorescence assay
Assay type: cell-based, human
Conditions: A549 cells, 24 hours, anti-c-Myc immunofluorescence
Procedure, shortened: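 A549 NSCLC cells grown 48 h, then treated 24 h with increasing compound concentrations; fixed in 4% paraformaldehyde, stained with anti-c-Myc antibody plus fluorescent secondary and DAPI. Per-cell c-Myc fluorescence quantified by high-content imaging at 20×; dose-response fitted by logistic regression to give EC50.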

Row | Compound | Myc Efficacy (−LogEC50)
1 | COc1ccc(-c2noc(N3CCC(C(=O)NCc4nc5ccccc5[nH]4)CC3)n2)cc1 [Compound 419, N-((1H-benzo[d]imidazol-2-yl)methyl)-1-(3-(4-methoxyphenyl)-1,2,4-oxadiazol-5-yl)piperidine-4-carboxamide] | ++ (++ ≥5 and <6)
2 | COc1ccc(-c2noc(N3CCC(C(=O)NCc4nc5ccccc5o4)CC3)n2)cc1 [Compound 420, N-(benzo[d]oxazol-2-ylmethyl)-1-(3-(4-methoxyphenyl)-1,2,4-oxadiazol-5-yl)piperidine-4-carboxamide] | + (+ >3 and <5)
3 | COc1ccc(-c2noc(N3CCN(C(=O)NCC4CCN(CC5CCCCC5)C4)CC3)n2)cc1 (stereo not drawn) [Compound 421, N-((1-(cyclohexylmethyl)pyrrolidin-3-yl)methyl)-4-(3-(4-methoxyphenyl)-1,2,4-oxadiazol-5-yl)piperazine-1-carboxamide] | +++ (+++ ≥6)
4 | COc1ccc(-c2noc(N3CCC(C(=O)NCC4CCN(C[C@H]5CCCN(C)C5)C4)CC3)n2)cc1 (stereo partly drawn) [Compound 422, 1-(3-(4-methoxyphenyl)-1,2,4-oxadiazol-5-yl)-N-((1-(((S)-1-methylpiperidin-3-yl)methyl)pyrrolidin-3-yl)methyl)piperidine-4-carboxamide] | ++ (++ ≥5 and <6)
5 | O=C(NCCCN1CCC(Oc2ccccc2)CC1)N1CCN(c2nc(-c3ccc(OC(F)(F)F)cc3)no2)CC1 [Compound 428, N-(3-(4-phenoxypiperidin-1-yl)propyl)-4-(3-(4-(trifluoromethoxy)phenyl)-1,2,4-oxadiazol-5-yl)piperazine-1-carboxamide] | +++ (+++ ≥6)
6 | O=C(NCCCN1CCC(Cc2ccccc2F)CC1)N1CCN(c2nc(-c3ccc(OC(F)(F)F)cc3)no2)CC1 [Compound 429, N-(3-(4-(2-fluorobenzyl)piperidin-1-yl)propyl)-4-(3-(4-(trifluoromethoxy)phenyl)-1,2,4-oxadiazol-5-yl)piperazine-1-carboxamide] | +++ (+++ ≥6)
7 | O=C(NCCCN1CCC(Cc2ccccn2)CC1)N1CCN(c2nc(-c3ccc(F)cc3)no2)CC1 [Compound 430, 4-(3-(4-fluorophenyl)-1,2,4-oxadiazol-5-yl)-N-(3-(4-(pyridin-2-ylmethyl)piperidin-1-yl)propyl)piperazine-1-carboxamide] | +++ (+++ ≥6)
8 | COc1ccc(-c2noc(N3CCC(C(=O)NC[C@H]4CCN(CC5CCN(C)CC5)C4)CC3)n2)cc1 [Compound 433, (R)-1-(3-(4-methoxyphenyl)-1,2,4-oxadiazol-5-yl)-N-((1-((1-methylpiperidin-4-yl)methyl)pyrrolidin-3-yl)methyl)piperidine-4-carboxamide] | + (+ >3 and <5)
9 | COc1ccc(-c2noc(N3CCC(C(=O)NC[C@@H]4CCN(CC5CCN(C)CC5)C4)CC3)n2)cc1 [Compound 434, (S)-1-(3-(4-methoxyphenyl)-1,2,4-oxadiazol-5-yl)-N-((1-((1-methylpiperidin-4-yl)methyl)pyrrolidin-3-yl)methyl)piperidine-4-carboxamide] | + (+ >3 and <5)
10 | O=C(NCCCN1CCC(Cc2ccccn2)CC1)C1CCN(c2nc(-c3ccc(OC(F)(F)F)cc3)no2)CC1 [Compound 435, N-(3-(4-(pyridin-2-ylmethyl)piperidin-1-yl)propyl)-1-(3-(4-(trifluoromethoxy)phenyl)-1,2,4-oxadiazol-5-yl)piperidine-4-carboxamide] | +++ (+++ ≥6)
11 | O=C(NCCCN1CCC(Cc2ccccn2)CC1)N1CCN(c2nc(-c3ccc(OC(F)(F)F)cc3)no2)CC1 [Compound 436, N-(3-(4-(pyridin-2-ylmethyl)piperidin-1-yl)propyl)-4-(3-(4-(trifluoromethoxy)phenyl)-1,2,4-oxadiazol-5-yl)piperazine-1-carboxamide] | +++ (+++ ≥6)
12 | O=C(NCCCN1CCC(Cc2ccccc2F)CC1)N1CCN(c2nc(-c3ccc(OC(F)F)cc3)no2)CC1 [Compound 438, 4-(3-(4-(difluoromethoxy)phenyl)-1,2,4-oxadiazol-5-yl)-N-(3-(4-(2-fluorobenzyl)piperidin-1-yl)propyl)piperazine-1-carboxamide] | +++ (+++ ≥6)
13 | O=C(NCC1(CN2CCC(Cc3ccccn3)CC2)CC1)N1CCN(c2nc(-c3ccc(OC(F)(F)F)cc3)no2)CC1 [Compound 450, N-((1-((4-(pyridin-2-ylmethyl)piperidin-1-yl)methyl)cyclopropyl)methyl)-4-(3-(4-(trifluoromethoxy)phenyl)-1,2,4-oxadiazol-5-yl)piperazine-1-carboxamide] | ++ (++ ≥5 and <6)
14 | O=C(NCCCN1CCC(Cc2ccccn2)CC1)C1CCN(c2nc(-c3ccc(OC(F)F)cc3)no2)CC1 [Compound 453, 1-(3-(4-(difluoromethoxy)phenyl)-1,2,4-oxadiazol-5-yl)-N-(3-(4-(pyridin-2-ylmethyl)piperidin-1-yl)propyl)piperidine-4-carboxamide] | +++ (+++ ≥6)
15 | O=C(NCCCN1CCC(Cc2ccccn2)CC1)N1CCN(c2nc(-c3ccc(Cl)cc3)no2)CC1 [Compound 458, 4-(3-(4-chlorophenyl)-1,2,4-oxadiazol-5-yl)-N-(3-(4-(pyridin-2-ylmethyl)piperidin-1-yl)propyl)piperazine-1-carboxamide] | +++ (+++ ≥6)
16 | O=C(NCCCN1CCC(Cc2ccccn2)CC1)N1CCN(c2nc(-c3ccc(C(F)(F)F)cc3)no2)CC1 [Compound 459, N-(3-(4-(pyridin-2-ylmethyl)piperidin-1-yl)propyl)-4-(3-(4-(trifluoromethyl)phenyl)-1,2,4-oxadiazol-5-yl)piperazine-1-carboxamide] | +++ (+++ ≥6)
17 | O=C(NCCCN1CCC(Cc2ccccn2)CC1)N1CCN(c2nc(-c3ccc(C(F)F)cc3)no2)CC1 [Compound 460, 4-(3-(4-(difluoromethyl)phenyl)-1,2,4-oxadiazol-5-yl)-N-(3-(4-(pyridin-2-ylmethyl)piperidin-1-yl)propyl)piperazine-1-carboxamide] | +++ (+++ ≥6)
18 | Cc1ccc(CN2CCC(CNC(=O)N3CCN(c4nc(-c5ccc(OCCO)cc5)no4)CC3)C2)cc1 (stereo not drawn) [Compound 462, 4-(3-(4-(2-hydroxyethoxy)phenyl)-1,2,4-oxadiazol-5-yl)-N-((1-(4-methylbenzyl)pyrrolidin-3-yl)methyl)piperazine-1-carboxamide] | ++ (++ ≥5 and <6)
19 | Cc1ccc(CN2CCC(CNC(=O)C3CCN(c4nc(-c5ccc(OCCO)cc5)no4)CC3)C2)cc1 (stereo not drawn) [Compound 463, 1-(3-(4-(2-hydroxyethoxy)phenyl)-1,2,4-oxadiazol-5-yl)-N-((1-(4-methylbenzyl)pyrrolidin-3-yl)methyl)piperidine-4-carboxamide] | + (+ >3 and <5)
20 | COc1ccc(-c2noc(N3CCC(C(=O)NCC4CCN(C[C@@H]5CCCN(C)C5)C4)CC3)n2)cc1 (stereo partly drawn) [Compound 464, 1-(3-(4-methoxyphenyl)-1,2,4-oxadiazol-5-yl)-N-((1-(((R)-1-methylpiperidin-3-yl)methyl)pyrrolidin-3-yl)methyl)piperidine-4-carboxamide] | + (+ >3 and <5)
21 | COc1ccc(-c2noc(N3CCC(C(=O)NC[C@H]4CCN(C[C@H]5CCCN(C)C5)C4)CC3)n2)cc1 [Compound 465, 1-(3-(4-methoxyphenyl)-1,2,4-oxadiazol-5-yl)-N-(((R)-1-(((S)-1-methylpiperidin-3-yl)methyl)pyrrolidin-3-yl)methyl)piperidine-4-carboxamide] | + (+ >3 and <5)
22 | COc1ccc(-c2noc(N3CCC(C(=O)NC[C@@H]4CCN(C[C@H]5CCCN(C)C5)C4)CC3)n2)cc1 [Compound 466, 1-(3-(4-methoxyphenyl)-1,2,4-oxadiazol-5-yl)-N-(((S)-1-(((S)-1-methylpiperidin-3-yl)methyl)pyrrolidin-3-yl)methyl)piperidine-4-carboxamide] | + (+ >3 and <5)
23 | CN1CCC[C@H](CN2CCC(CNC(=O)C3CCN(c4nc(-c5ccc(C#N)cc5)no4)CC3)C2)C1 (stereo partly drawn) [Compound 467, 1-(3-(4-cyanophenyl)-1,2,4-oxadiazol-5-yl)-N-((1-(((S)-1-methylpiperidin-3-yl)methyl)pyrrolidin-3-yl)methyl)piperidine-4-carboxamide] | + (+ >3 and <5)
24 | CN1CCC[C@H](CN2CCC(CNC(=O)C3CCN(c4nc(-c5ccc(Cl)cc5)no4)CC3)C2)C1 (stereo partly drawn) [Compound 468, 1-(3-(4-chlorophenyl)-1,2,4-oxadiazol-5-yl)-N-((1-(((S)-1-methylpiperidin-3-yl)methyl)pyrrolidin-3-yl)methyl)piperidine-4-carboxamide] | ++ (++ ≥5 and <6)
25 | Cc1ccc(CN2CCC(CNC(=O)N3CCN(c4nc(-c5ccc(OCC(O)CO)cc5)no4)CC3)C2)cc1 (stereo not drawn) [Compound 473, 4-(3-(4-(2,3-dihydroxypropoxy)phenyl)-1,2,4-oxadiazol-5-yl)-N-((1-(4-methylbenzyl)pyrrolidin-3-yl)methyl)piperazine-1-carboxamide] | + (+ >3 and <5)
26 | CN1CCC[C@@H](CN2CC[C@@H](CNC(=O)C3CCN(c4nc(-c5ccc(Cl)cc5)no4)CC3)C2)C1 [Compound 474, 1-(3-(4-chlorophenyl)-1,2,4-oxadiazol-5-yl)-N-(((S)-1-(((R)-1-methylpiperidin-3-yl)methyl)pyrrolidin-3-yl)methyl)piperidine-4-carboxamide] | ++ (++ ≥5 and <6)
27 | CN1CCC[C@@H](CN2CC[C@H](CNC(=O)C3CCN(c4nc(-c5ccc(Cl)cc5)no4)CC3)C2)C1 [Compound 475, 1-(3-(4-chlorophenyl)-1,2,4-oxadiazol-5-yl)-N-(((R)-1-(((R)-1-methylpiperidin-3-yl)methyl)pyrrolidin-3-yl)methyl)piperidine-4-carboxamide] | ++ (++ ≥5 and <6)

From patent US12344600B2, “c-Myc mRNA translation modulators and uses thereof in the treatment of cancer” (Anima Biotech Inc., priority 2022, dated 2025)
